Test results: patent US20230263742A1, “A LIPID” (Stemirna Therapeutics Co., Ltd., priority 2021, published 2023)

tested on: Balb/C mice; assay: Luc expression in injection site and liver site after intramuscular administration (Example 5); assay type: in vivo; details: 5 μg Luc mRNA-LNP (DSPC) intramuscularly, Balb/C mice n=3, 6 h
Procedure: Further bioluminescence studies were performed to investigate the delivery efficiency of nanoparticle compositions including various lipid compounds according to the present invention. The formulations containing reference cationic lipid M62, M63, M118, and M119 (corresponding to Compound 62, 63, 118, and 119 in PCT/US2018/022717 (WO2018/170306), respectively) were evaluated for comparison. Nanoparticle compositions including DSPC as an optimized phospholipid, cholesterol as a structural lipid, PEG-DMG as a PEG lipid, an RNA, and a compound above mentioned were prepared according to or via methods similar to those described in Examples 1 and 2. The ratios of the lipids were 50:10:38.5:1.5 mol % for the lipid of the present invention: DSPC: cholesterol: PEG-DMG. 5 μg of LNP solution containing luciferase mRNA was administered intramuscularly to Balb/C mice (n=3). 6 hours after administration, mice were injected intraperitoneally with 0.15 mg/kg of D-luciferin substrate. Within 15 minutes after the injection of the substrate, the fluorescence signal intensity in injection site and liver site were tested under a small animal in vivo imaging instrument. Tables 3-4 summarize the fluorescence signal intensity of the nanoparticle compositions including present invention lipids and the reference compounds in injection site and liver site.

Going from `CCCCCCCCC(CCCCCCCC)OC(=O)CCCCCCCN(CCO)CCCCCCCC(=O)OCc1cccc(CCCCCC)c1` [SW-II-122] to `CCCCCCCCC(CCCCCCCC)OC(=O)CCCCCCCN(CCO)CCCCCCCC(=O)OCCc1cccc(CCCCCC)c1` [SW-II-139-1], the “Luc expression in injection site, I.M. injection site, 6 h (ratio relative to SW-II-134-3 set as 1)” value rises from 1.321 to 1.807.

Compared with `CCCCCCCCCOC(=O)CCCCCCCN(CCO)CCCCCCCC(=O)OCCCCc1ccc(CCCCCC)c(CCCCCC)c1` [SW-II-136-2], `CCCCCCCCCOC(=O)CCCCCCCN(CCO)CCCCCCCC(=O)OCCCc1ccc(CCCCCCC)c(CCCCCCC)c1` [SW-II-135-2] is lower in “Luc expression in injection site, I.M. injection site, 6 h (ratio relative to SW-II-134-3 set as 1)” value: 1.110 for the first, 1.028 for the second.

First: CCCCCCCCC(CCCCCCCC)OC(=O)CCCCCCCN(CCO)CCCCCCCC(=O)OCCCCc1ccc(CCCC)cc1 [SW-II-138-1]
Second: CCCCCCCCC(CCCCCCCC)OC(=O)CCCCCCCN(CCO)CCCCCCCC(=O)OCCCCc1ccc(CCCCC)cc1 [SW-II-138-2]
The “Luc expression in injection site, I.M. injection site, 6 h (ratio relative to SW-II-134-3 set as 1)” value of the first is lower: 1.972 for the first, 2.826 for the second.

First: CCCCCCCCCOC(=O)CCCCCCCN(CCO)CCCCCCCC(=O)OCCc1ccc(CCCCCC)c(CCCCCC)c1 [SW-II-134-1]
Second: CCCCCCCCCOC(=O)CCCCCCCN(CCO)CCCCCCCC(=O)OCCCc1ccc(CCCCC)c(CCCCC)c1 [SW-II-135-1]
The “Luc expression in injection site, I.M. injection site, 6 h (ratio relative to SW-II-134-3 set as 1)” value of the first is higher: 1.899 for the first, 1.771 for the second.

Going from `CCCCCCCCCOC(=O)CCCCCCCN(CCO)CCCCCCCC(=O)OCCc1ccc(CCCC)c(CCCC)c1` [SW-II-134-3] to `CCCCCCCCCOC(=O)CCCCCCCN(CCO)CCCCCCCC(=O)OCc1ccc(CCCCCC)c(CCCCCC)c1` [SW-II-115], the “Luc expression in injection site, I.M. injection site, 6 h (ratio relative to SW-II-134-3 set as 1)” value rises from 1.000 to 1.046.

Going from `CCCCCCCCC(CCCCCCCC)OC(=O)CCCCCCCN(CCO)CCCCCCC(=O)OCc1ccc(CCCCCC)cc1` [SW-II-127] to `CCCCCCCCC(CCCCCCCC)OC(=O)CCCCCCCN(CCO)CCCCCCCC(=O)OCCCc1ccc(CCCCCC)cc1` [SW-II-137-3], the “Luc expression in injection site, I.M. injection site, 6 h (ratio relative to SW-II-134-3 set as 1)” value falls from 1.743 to 1.358.

First: CCCCCCCCC(CCCCCCCC)OC(=O)CCCCCCCN(CCO)CCCCCCCC(=O)OCCCCc1ccc(CCCCCC)cc1 [SW-II-138-3]
Second: CCCCCCCCC(CCCCCCCC)OC(=O)CCCCCCCN(CCO)CCCCCCCC(=O)OCCc1ccccc1CCCCCC [SW-II-140-1]
The “Luc expression in injection site, I.M. injection site, 6 h (ratio relative to SW-II-134-3 set as 1)” value of the first is lower: 1.294 for the first, 2.450 for the second.

Compared with `CCCCCCCCC(CCCCCCCC)OC(=O)CCCCCCCN(CCO)CCCCCCCC(=O)OCCc1cccc(CCCC)c1` [SW-II-139-2], `CCCCCCCCC(CCCCCCCC)OC(=O)CCCCCCCN(CCO)CCCCCCCC(=O)OCCc1ccccc1CCCC` [SW-II-140-2] is higher in “Luc expression in injection site, I.M. injection site, 6 h (ratio relative to SW-II-134-3 set as 1)” value: 1.440 for the first, 2.257 for the second.

In the case of `CCCCCCCCCOC(=O)CCCCCCCN(CCO)CCCCCCCC(=O)OCCc1ccc(CCCCCCCC)c(CCCCCCCC)c1` [SW-II-134-2], the “Luc expression in injection site, I.M. injection site, 6 h (ratio relative to SW-II-134-3 set as 1)” value is reported as 1.734.

Going from `CCCCCCCCCOC(=O)CCCCCCCN(CCO)CCCCCCCC(=O)OCCCCc1ccc(CCCCCC)c(CCCCCC)c1` [SW-II-136-2] to `CCCCCCCCC(CCCCCCCC)OC(=O)CCCCCCCN(CCO)CCCCCCCC(=O)OCCCCc1ccc(CCCCC)cc1` [SW-II-138-2], the “Luc expression in liver site, Liver site upon I.M., 6 h (ratio relative to SW-II-137-1 set as 1)” value rises from 1.131 to 3.318.

Going from `CCCCCCCCC(CCCCCCCC)OC(=O)CCCCCCCN(CCO)CCCCCCCC(=O)OCCc1cccc(CCCCCC)c1` [SW-II-139-1] to `CCCCCCCCC(CCCCCCCC)OC(=O)CCCCCCCN(CCO)CCCCCCCC(=O)OCCc1cccc(CCCC)c1` [SW-II-139-2], the “Luc expression in liver site, Liver site upon I.M., 6 h (ratio relative to SW-II-137-1 set as 1)” value falls from 2.355 to 1.355.

Compared with `CCCCCCCCC(CCCCCCCC)OC(=O)CCCCCCCN(CCO)CCCCCCCC(=O)OCCCCc1ccc(CCCC)cc1` [SW-II-138-1], `CCCCCCCCC(CCCCCCCC)OC(=O)CCCCCCCN(CCO)CCCCCCCC(=O)OCCCc1ccc(CCCCC)cc1` [SW-II-137-2] is lower in “Luc expression in liver site, Liver site upon I.M., 6 h (ratio relative to SW-II-137-1 set as 1)” value: 1.430 for the first, 1.206 for the second.

Compared with `CCCCCCCCC(CCCCCCCC)OC(=O)CCCCCCCN(CCO)CCCCCCCC(=O)OCCCCc1ccc(CCCCCC)cc1` [SW-II-138-3], `CCCCCCCCC(CCCCCCCC)OC(=O)CCCCCCCN(CCO)CCCCCCCC(=O)OCCCc1ccc(CCCCCC)cc1` [SW-II-137-3] is lower in “Luc expression in liver site, Liver site upon I.M., 6 h (ratio relative to SW-II-137-1 set as 1)” value: 2.850 for the first, 1.981 for the second.

Going from `CCCCCCCCC(CCCCCCCC)OC(=O)CCCCCCCN(CCO)CCCCCCCC(=O)OCCc1ccccc1CCCCCC` [SW-II-140-1] to `CCCCCCCCC(CCCCCCCC)OC(=O)CCCCCCCN(CCO)CCCCCCCC(=O)OCCc1ccccc1CCCC` [SW-II-140-2], the “Luc expression in liver site, Liver site upon I.M., 6 h (ratio relative to SW-II-137-1 set as 1)” value rises from 3.224 to 6.991.

`CCCCCCCCC(CCCCCCCC)OC(=O)CCCCCCCN(CCO)CCCCCCCC(=O)OCCCc1ccc(CCCC)cc1` [SW-II-137-1] was tested, and the “Luc expression in liver site, Liver site upon I.M., 6 h (ratio relative to SW-II-137-1 set as 1)” value was 1.000.
